Data: US11034671B2, “Apoptosis signal-regulating kinase inhibitors and uses thereof” (SICHUAN HAISCO PHARMACEUTICAL CO., LTD., priority 2017, dated 2021)

Biological target: ASK1 (Homo sapiens (Human), UniProt Q99683)
Assay: ASK1 KINOMEscan assay (biochemical Kd), competition binding
Settings: DNA-tagged ASK1 kinase, 11-point 3-fold dilution
Description: The binding of compounds to ASK1 were determined using DiscoverX's proprietary technology. […] The assay is performed by combining three components: DNA-tagged ASK1 kinase; immobilized ligand; and a test compound. The ability of the test compound to compete with the immobilized ligand is measured via quantitative PCR of the DNA tag. […] The liganded beads were blocked with excess biotin and washed with blocking buffer (SeaBlock (Pierce), 1% BSA, 0.05% Tween 20, 1 mM DTT) to remove unbound ligand and to reduce nonspecific binding. […] Kds were determined using an 11-point 3-fold compound dilution series with three DMSO control points. […] The compounds were then diluted directly into the assays such that the final concentration of DMSO was 0.9%. All reactions were performed in polypropylene 384-well plate. […] The kinase concentration in the eluates was measured by qPCR. Most Kds were determined using a compound top concentration=30,000 nM. […] Binding constants (Kds) were calculated with a standard dose-response curve using the Hill equation: Response=Background+{(Signal−Background)/[1+(Kd^Hill Slope/Dose^Hill Slope)]}, the Hill Slope was set to −1, and curves were fitted using a non-linear least square fit with the Levenberg-Marquardt algorithm.

Chain of ASK1 (Q99683 whole entry): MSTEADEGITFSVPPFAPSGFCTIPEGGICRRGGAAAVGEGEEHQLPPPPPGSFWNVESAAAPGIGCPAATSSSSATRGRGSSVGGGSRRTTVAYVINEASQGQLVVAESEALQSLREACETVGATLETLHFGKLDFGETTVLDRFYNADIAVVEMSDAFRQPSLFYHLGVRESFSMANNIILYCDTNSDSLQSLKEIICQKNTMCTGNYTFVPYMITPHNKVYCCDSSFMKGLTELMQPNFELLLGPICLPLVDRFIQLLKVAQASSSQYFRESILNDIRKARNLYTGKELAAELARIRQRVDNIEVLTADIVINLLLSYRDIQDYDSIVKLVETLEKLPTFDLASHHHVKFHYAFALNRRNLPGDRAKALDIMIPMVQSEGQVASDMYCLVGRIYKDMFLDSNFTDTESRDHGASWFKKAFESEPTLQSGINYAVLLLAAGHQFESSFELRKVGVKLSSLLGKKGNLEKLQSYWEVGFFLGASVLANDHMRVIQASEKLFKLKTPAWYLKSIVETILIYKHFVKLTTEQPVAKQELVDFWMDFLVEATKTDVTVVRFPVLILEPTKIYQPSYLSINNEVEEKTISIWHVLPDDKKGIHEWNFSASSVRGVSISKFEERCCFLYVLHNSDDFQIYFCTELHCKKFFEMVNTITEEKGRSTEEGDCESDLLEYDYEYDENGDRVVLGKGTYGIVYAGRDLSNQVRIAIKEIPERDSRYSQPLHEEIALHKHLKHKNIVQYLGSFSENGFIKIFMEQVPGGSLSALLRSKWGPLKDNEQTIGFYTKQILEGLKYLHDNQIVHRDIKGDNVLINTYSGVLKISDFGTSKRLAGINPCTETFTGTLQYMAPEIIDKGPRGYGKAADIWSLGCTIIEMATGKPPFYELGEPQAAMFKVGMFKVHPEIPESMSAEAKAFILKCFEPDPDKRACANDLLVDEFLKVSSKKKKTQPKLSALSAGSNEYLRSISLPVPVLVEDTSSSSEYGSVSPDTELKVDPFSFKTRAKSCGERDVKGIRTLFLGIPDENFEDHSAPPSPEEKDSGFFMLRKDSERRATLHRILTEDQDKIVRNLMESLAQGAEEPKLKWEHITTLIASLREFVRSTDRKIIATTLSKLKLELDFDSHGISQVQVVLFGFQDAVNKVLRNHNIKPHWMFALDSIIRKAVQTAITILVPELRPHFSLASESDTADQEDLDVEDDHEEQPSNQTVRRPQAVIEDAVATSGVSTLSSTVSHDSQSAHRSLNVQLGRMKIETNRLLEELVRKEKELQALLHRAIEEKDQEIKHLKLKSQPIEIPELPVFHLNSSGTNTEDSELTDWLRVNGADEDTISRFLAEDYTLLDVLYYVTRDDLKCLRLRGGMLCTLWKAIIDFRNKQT

SMILES	Kd [nM]
O=C1Nc2cccc(n2)-c2nncn2CC=CCCOc2ccc(Br)cc21 [Example 10]	< 10
Cc1ncc(-c2ccc3c(c2)C(=O)Nc2cccc(n2)-c2nncn2CCCCO3)cn1 [Example 73]	< 10
CC(C)n1nccc1-c1ccc2c(c1)C(=O)Nc1cccc(n1)-c1nncn1CCCCO2 [Example 45]	100 to 1000
Cc1ccc(-c2ccc3c(c2)C(=O)Nc2cccc(n2)-c2nncn2CC(C)CCO3)cn1 (stereo not shown) [Example 80]	< 10
Cc1ccc(-c2ccc3c(c2)C(=O)Nc2cccc(n2)-c2nncn2CCO3)cn1 [Example 72]	> 1000
Cn1ncc2cc(-c3ccc4c(c3)C(=O)Nc3cccc(n3)-c3nncn3CCCCO4)ccc21 [Example 55]	< 10
COc1ccc2c(c1)C(=O)Nc1cccc(n1)-c1nncn1CC=CC2 [Example 94]	> 1000
COc1ccc2c(c1)C(=O)Nc1cccc(n1)-c1nncn1CCCCC2 [Example 5]	100 to 1000
O=C1Nc2cccc(n2)-c2nncn2[C@H]2CC[C@H](CC2)Oc2ccc(-c3ccc(C(F)F)nc3)cc21 [Example 84]	< 10
O=C1Nc2cccc(n2)-c2nncn2CCCOCc2ccc(-c3cnc(F)c(F)c3)cc21 [Example 107]	10 to 100
Cc1ccc(-c2ccc3c(c2)C(=O)Nc2cccc(n2)-c2nncn2CCCO3)cn1 [Example 60]	< 10
CCc1ccc(-c2ccc3c(c2)C(=O)Nc2cccc(n2)-c2nncn2CCCS3)cn1 [compound 92]	< 10
O=C1Nc2cccc(n2)-c2nncn2CCCCOc2cc(F)c(Br)cc21 [Example 28]	100 to 1000
O=C1Nc2cccc(n2)-c2nncn2CCCOCc2ccc(-c3ccc(C(F)(F)F)nc3)cc21 [Example 101]	10 to 100
O=C1Nc2cccc(n2)-c2nncn2CCCCOc2ccc(-c3cnc(F)c(F)c3)cc21 [Example 98]	< 10
COc1cc2c(cc1Br)OCCCCn1cnnc1-c1cccc(n1)NC2=O [Example 59]	100 to 1000
O=C1Nc2cccc(n2)-c2nncn2CCCOc2ccc(-c3ccc(C(F)F)nc3)cc21 [Example 90]	> 1000
COc1ccc2c(c1)C(=O)Nc1cccc(n1)-c1nncn1CCCCCCO2 [Example 11]	< 10
Cc1ccc(-c2ccc3c(c2)C(=O)Nc2cccc(n2)-c2nncn2[C@@H](C)CCCO3)cn1 [Example 88]	< 10
O=C1Nc2cccc(n2)-c2nncn2CCCCOc2ccc(OC3CCOC3)cc21 (stereo not shown) [Example 20]	10 to 100
O=C1Nc2cccc(n2)-c2nncn2CCCCOc2ccc(-c3cnc(F)c(Cl)c3)cc21 [Example 99]	< 10
Cc1ccc(-c2cc3c(cc2F)OCCCCn2cnnc2-c2cccc(n2)NC3=O)cn1 [Example 64]	100 to 1000
O=C1Nc2cccc(n2)-c2nncn2CCCOCc2ccc(-c3cnc(F)c(Cl)c3)cc21 [Example 106]	10 to 100

SMILES	Kd [nM]
CC1CCOc2ccc(-c3ccc(C(F)F)nc3)cc2C(=O)Nc2cccc(n2)-c2nncn21 (stereo not shown) [Example 83]	> 1000
O=C1Nc2cccc(n2)-c2nncn2CCCOc2ccc(-c3ccccc3)cc21 [Example 57]	10 to 100
COc1cc2c(cc1OC)C(=O)Nc1cccc(n1)-c1nncn1CCCCO2 [Example 29]	100 to 1000
Cc1ncc(-c2ccc3c(c2)C(=O)Nc2cccc(n2)-c2nncn2CCCCO3)cc1Cl [Example 75]	10 to 100
COc1ccc2c(c1)C(=O)Nc1cccc(n1)-c1nncn1CCCCO2 [Example 7]	< 10
Cc1ccc(-c2cc3c(cc2C)OCCCCn2cnnc2-c2cccc(n2)NC3=O)cn1 [Example 51]	< 10
Cc1ccc(-c2ccc3c(c2)C(=O)Nc2cccc(n2)-c2nncn2C2C[C@H]2CCO3)cn1 (stereo in doubt) [Example 97]	< 10
COc1ccc2c(c1)C(=O)Nc1cccc(n1)-c1nncn1CC/C=C/CO2 [Example 1]	< 10
N#Cc1cc2c(cc1F)OCCCCn1cnnc1-c1cccc(n1)NC2=O [Example 44]	10 to 100
O=C1Nc2cccc(n2)-c2nncn2CCCOCc2ccc(-c3ccc(CF)nc3)cc21 [Example 100]	< 10
O=C1Nc2cccc(n2)-c2nncn2C/C=C/CCOc2ccc(OCc3ccccc3)cc21 [Example 17]	10 to 100
Cc1ccc(-c2ccc3c(c2)C(=O)Nc2cccc(n2)-c2nncn2[C@H](C)CCCO3)cn1 [Example 89]	< 10
O=C1Nc2cccc(n2)-c2nncn2CCCCOc2ccc(-c3ccc4nccn4c3)cc21 [Example 58]	< 10
O=C1Nc2cccc(n2)-c2nncn2CCCOCc2ccc(-c3ccc(C(F)F)nc3)cc21 [Example 82]	< 10
Cc1ccc(-c2ccc3c(c2)C(=O)Nc2cccc(n2)-c2nncn2C[C@H]2CC2CO3)cn1 (stereo partly shown) [Example 77]	< 10
CC(C)(O)c1ccc2c(c1)OCCCCn1cnnc1-c1cccc(n1)NC2=O [Example 53]	< 10
N#Cc1ccc2c(c1)OCCCCn1cnnc1-c1cccc(n1)NC2=O [Example 96]	10 to 100
O=C1Nc2cccc(n2)-c2nncn2CCCOc2ccc(Br)cc21 [Example 33]	100 to 1000
Cc1ccc(-c2ccc3c(c2)C(=O)Nc2cccc(n2)-c2nncn2C[C@@H]2CC2CO3)cn1 (stereo partly shown) [Example 81]	< 10
Cc1ccc(-c2ccc3c(c2)C(=O)Nc2cccc(n2)-c2nncn2CC[C@@H](C)CO3)cn1 [Example 104]	< 10
N#Cc1ccc2c(c1)C(=O)Nc1cccc(n1)-c1nncn1CCCCO2 [Example 31]	< 10
O=C1Nc2cccc(n2)-c2nncn2CCCCCCOc2ccc(-c3ccc(C4CC4)nc3)cc21 [Example 9]	100 to 1000
COc1ccc2c(c1)C(=O)Nc1cccc(n1)-c1nncn1CCC/C=C/CO2 [Example 3]	10 to 100

Continued, values first:

Kd [nM]	SMILES
100 to 1000	O=C1Nc2cccc(n2)-c2nncn2C2CC(C2)Oc2ccc(-c3ccc(C(F)F)nc3)cc21 [Example 93]
100 to 1000	Cc1c(F)c(F)cc2c1C(=O)Nc1cccc(n1)-c1nncn1CCCCO2 [compound 26]
10 to 100	COc1ccc2c(c1)C(=O)Nc1cccc(n1)-c1nncn1CC=CCO2 [Example 6]
10 to 100	O=C1Nc2cccc(n2)-c2nncn2CCCCCc2ccc(-c3ccc(C4CC4)nc3)cc21 [Example 8]
> 1000	O=C1Nc2cccc(c2)-c2nncn2CCCOc2ccc(-c3ccc(C4CC4)nc3)cc21 [Example 21]
< 10	O=C1Nc2cccc(n2)-c2nncn2C/C=C/COc2ccc(OCc3ccccc3)cc21 [Example 18]
10 to 100	O=C1Nc2cccc(n2)-c2nncn2CC=CCCOc2ccc(-c3ccc(C4CC4)nc3)cc21 [Example 14]
> 1000	COc1ccc2c(c1)C(=O)Nc1cccc(n1)-c1nncn1CC/C=C/C2 [Example 4]
< 10	COc1ccc2c(c1)C(=O)Nc1cccc(n1)-c1nncn1CCCCCO2 [Example 2]
100 to 1000	O=C1Nc2cccc(n2)-c2nncn2CCCCOc2cc(F)c(F)cc21 [Example 25]
10 to 100	O=C1Nc2cccc(n2)-c2nncn2C/C=C\COc2ccc(Br)cc21 [Example 16]
< 10	Cc1ccc(-c2ccc3c(c2)C(=O)Nc2cccc(n2)-c2nncn2[C@H]2CC[C@H](CC2)O3)cn1 [Example 71]
< 10	Cc1ccc(-c2ccc3c(c2)C(=O)Nc2cccc(n2)-c2nncn2[C@H]2C[C@@H](CO3)C2)cn1 [Example 69]
< 10	O=C1Nc2cccc(n2)-c2nncn2CCCOCc2ccc(-c3ccc(C4CC4)nc3)cc21 [Example 95]
< 10	O=C1Nc2cccc(n2)-c2nncn2CCCCOc2ccc(-c3ccc(CF)nc3)cc21 [Example 87]
< 10	CC(F)(F)c1ccc(-c2ccc3c(c2)C(=O)Nc2cccc(n2)-c2nncn2CCCCO3)cn1 [Example 78]
< 10	O=C1Nc2cccc(n2)-c2nncn2CCCCOc2cc(F)c(-c3ccc(C4CC4)nc3)cc21 [Example 68]
10 to 100	O=C1Nc2cccc(n2)-c2nncn2CCCCOc2ccc(Cl)cc21 [Example 41]
> 1000	O=C1Nc2cccc(n2)-c2nncn2CC=CCCCOc2ccc(-c3ccc(C4CC4)nc3)cc21 [Example 13]
< 10	CCc1ccc(-c2ccc3c(c2)C(=O)Nc2cccc(n2)-c2nncn2CCCOC3)cn1 [Example 102]
10 to 100	O=C1Nc2cccc(n2)-c2nncn2CCCOc2ccc(-c3ccc(C(F)F)nc3)cc21 [Example 79]
< 10	O=C1Nc2cccc(n2)-c2nncn2[C@H]2CCC(C2)Oc2ccc(-c3ccc(C(F)F)nc3)cc21 [Example 86]
< 10	O=C1Nc2cccc(n2)-c2nncn2CCCOCc2ccc(-n3cnc(C4CC4)c3)cc21 [Example 103]
10 to 100	O=C1Nc2cccc(n2)-c2nncn2CCCCOc2ccc(C(F)(F)F)cc21 [Example 32]
10 to 100	O=C1Nc2cccc(n2)-c2nncn2CC=CCCCOc2ccc(Br)cc21 [Example 12]
< 10	Cc1cc2c(cc1-c1ccc(C3CC3)nc1)C(=O)Nc1cccc(n1)-c1nncn1CCCCO2 [Example 65]
> 1000	Cc1ccc(-c2ccc3c(c2)C(=O)Nc2cccc(n2)-c2nncn2CCCS3)cn1 [Example 91]
